Measured values taken from patent US20240261292A1, “COMBINATION THERAPIES” (Janssen Pharmaceutica NV, priority 2021, published 2024).
Counter-ions that a name gives are not always drawn. Like-named read-outs stand apart in the source and are kept apart here.

How the values were obtained:
[1] = Metabolic stability in mouse liver microsomes; type: in vitro ADME; conditions: pH 7.4, 0.5 mg/mL microsomes protein, read-out: Mouse LM Clint
Procedure: 4) Metabolic Stability in Human/Mouse Liver Microsomes
The objective of this study is to measure in vitro metabolic stability of test compound(s) in human and mouse liver microsomes and provide quantitative information on the rate of metabolic turnover (i.e., determination of the apparent intrinsic clearance of test).
Test items were prepared at a stock concentration of 10 mM in DMSO. For determination of metabolic turnover, a final working solution was prepared by adding 2 μL of 10 mM DMSO stock solution for test compound or positive control compounds to 198 μL of acetonitrile (100 μM final concentration).
Incubations were performed as follows: First, liver microsomes were thawed on ice and a master solution containing liver microsomes in 100 mM PBS (phosphate-buffered saline) at pH 7.4 is prepared. Next, the liver microsomes solution was added to the incubation plates and 10 mM NADPH (Nicotinamide-adenine dinucleotide phosphate) was added (MW: 833.4 g/mol; Roche Diagnostics GmbH1, Germany. Dissolved in phosphate buffer (100 mmol/L, pH 7.4)). The mixture was mixed for 10 seconds and pre-warmed in the incubation plate at 37° C. for 10 minutes. The metabolic reaction was initiated with the addition of 5 μL of the 100 μM working solution for test compound or positive control compounds to incubation plate (final test item concentration=1 μM). The reaction final mixture should contain 1 mM NADPH, 0.5 mg/mL microsomes protein and 1 μM test compound or positive control compound in 100 mM PBS at pH 7.4. The percentage of organic solvent in incubation mixture is 1% with DMSO 0.02%.
The reaction was quenched by transferring 50 μL of the incubated mixture at selected time points into the quenching plate containing 200 μL of cold methanol. […]
All calculations were carried out using Microsoft Excel. The slope value, k, was determined by linear regression of the natural logarithm of the remaining percentage of the parent drug vs. incubation time curve.
The in vitro half-life (in vitro t1/2) was determined from the slope value: […]

OCI-AML3 cells = assay: Proliferation assay (spheroid), OCI-AML3; type: cell-based, human; conditions: Homo sapiens, OCI-AML-3, […], 8 days
Procedure: The anti-proliferative effect of menin/MLL protein/protein interaction inhibitor test compounds was assessed inhuman leukemia cell lines. The cell line MOLM-14 harbors a MLL translocation and expresses the MLL fusion protein MLL-AF9, respectively, as well as the wildtype protein from the second allele. OCI-AML3 cells that carry the NPM1c gene mutation were also tested. […] KO-52 was used as a control cell line containing two MLL (KMT2A) wildtype alleles in order to exclude compounds that display general cytotoxic effects.
KO-52 and OCI-AML3 cell lines were propagated in alpha-MEM (Sigma Aldrich) supplemented with 20% heat-inactivated fetal bovine serum (HyClone), 2 mM L-glutamine (Sigma Aldrich) and 50 μg/ml gentamycin (Gibco).
In order to assess the anti-proliferative effects, 200 MOLM-14 cells, 200 OCI-AML3 cells or 300 KO-52 cells were seeded in 200 μl media per well in 96-well round bottom, ultra-low attachment plates (Costar, catalogue number 7007). Cell seeding numbers were chosen based on growth curves to ensure linear growth throughout the experiment. Test compounds were added at different concentrations and the DMSO content was normalized to 0.3%. Cells were incubated for 8 days at 37° C. and 5% CO2. Spheroid like growth was measured in real-time by live-cell imaging (IncuCyteZOOM, Essenbio, 4× objective) acquiring images at day 8. Confluence (%) as a measure of spheroid size was determined using an integrated analysis tool.
In order to determine the effect of the test compounds over time, the confluence in each well as a measure of spheroid size, was calculated. Confluence of the highest dose of a reference compound was used as baseline for the LC (Low control) and the confluence of DMSO treated cells was used as 0% cytotoxicity (High Control, HC).
HC=High Control: Mean confluence (%) (DMSO treated cells);
Dose-response equation was used for the plot of % Effect vs Log10 compound concentration with a variable slope and fixing the maximum to 100% and the minimum to 0%. 2b) MEIS1 mRNA Expression Assay

| Compound | microsomal CLint at 1 μM ([1]; liver microsomes) [µL/min/mg] | IC50 (OCI-AML3 cells) [µM] | microsomal CLint at 1 μM ([1]; mouse liver microsomes) [µL/min/mg] |
| --- | --- | --- | --- |
| CCN(C(=O)c1cc(F)ccc1Oc1nncnc1N1CCC2(C1)CN([C@H](CCCNCCOC)C(C)C)C2)C(C)C [Compound 11, (R)-N-ethyl-5-fluoro-N-isopropyl-2-((5-(2-(6-((2-methoxyethyl)amino)-2-methylhexan-3-yl)-2,6-diazaspiro[3.4]octan-6-yl)-1,2,4-triazin-6-yl)oxy)benzamide] | < 7.5 | 0.21 | – |
| CCN(C(=O)c1cc(F)ccc1Oc1nncnc1N1CCC2(C1)CN([C@H](CCCN(C)CCOC)C(C)C)C2)C(C)C [Compound A3, (R)-N-ethyl-5-fluoro-N-isopropyl-2-((5-(2-(6-((2-methoxyethyl) (methyl)amino)-2-methylhexan-3-yl)-2,6-diazaspiro[3.4]octan-6-yl)-1,2,4-triazin-6-yl)oxy) benzamide oxalate] | – | 0.12 | < 7.5 |
